This passage reports IC50 and EC50 results from patent US9815835B2, “Substituted polycyclic carbamolypyridone derivative” (priority 2009, dated 2017).

Experiment [1] has as its target cap-dependent endonuclease (RNP fraction containing PB1•PB2•PA complex) (Influenza A virus, UniProt P15659). Put plainly: biochemical. The settings on record: RNP from A/WSN/33 virus, capped Cy3/BHQ2 30mer RNA substrate, 60 minutes at room temperature; read-out: CEN IC50.
In the next experiment the test system is influenza virus. Briefly: microbe, parasite or virus in culture. It counts as cell-based, influenza virus (MDBK or MDCK cells). The settings on record: unidentified influenza virus, 72 h, read-out: CPE EC50, effective concentration to achieve 50% CPE inhibition, 3 days incubation, WST-8. On the technique in general: Tetrazolium dyes change colour on reduction, which living cells bring about.

On to `N#CCN1C[C@H](C(c2ccccc2)c2ccccc2)n2ccc(=O)c(O)c2C1=O` [Example 574], for which the IC50 (in general, the midpoint of a concentration-inhibition curve) in experiment [1] is 165 nM. Further, in the experiment on influenza virus, the EC50 was determined as 442 nM.
As for `CC(C#N)N1CC(C2c3ccccc3CCc3ccccc32)n2ccc(=O)c(O)c2C1=O` (stereo not shown) [Example 575], the IC50 in experiment [1] was 58 nM. For the same compound, in the experiment with influenza virus, the EC50 stood at 87 nM.
Take `CC(C)N1C[C@H](C2c3ccccc3CCc3ccccc32)n2ccc(=O)c(O)c2C1=O` [Example 576]: the IC50 in experiment [1] stood at 63 nM. For the same compound, in the experiment on influenza virus, the EC50 came out at 27 nM.
As for `COCCN1CN(C(c2ccccc2)c2ccccc2)n2c(CC#N)cc(=O)c(O)c2C1=O` [Example 577], the IC50 in experiment [1] is 233 nM. Moreover, the EC50 with influenza virus worked out at 337 nM.
Regarding `CC(C)N1CN(C(c2ccccc2)c2ccccc2)n2c(N)cc(=O)c(O)c2C1=O` [Example 581], in experiment [1], the IC50 came out at 83 nM. Moreover, the EC50 in the experiment on influenza virus amounted to 480 nM.
